Experimental data as given in patent US10562908B2, “Ortho substituted phenylpyrazolo- and phenylpyrrolo-pyridazine derivatives having multimodal activity against pain” (priority 2016, dated 2020).
Where two headings read alike, the source gives them in different places.

Experiments:
[1] = target: Human α2δ-1 subunit of Cav2.2 calcium channel (Homo sapiens, UniProt P54289); test: Human α2δ-1 subunit of Cav2.2 calcium channel assay ([3H]-Gabapentin); assay type: binding
Method: Human α2δ-1 Subunit of Cav2.2 Calcium Channel Assay
Human α2δ-1 enriched membranes (2.5 μg) were incubated with 15 nM of radiolabeled [3H]-Gabapentin in assay buffer containing Hepes-KOH 10 mM, pH 7.4. NSB (non specific binding) was measured by adding 10 μM pregabalin. After 60 min incubation at 27° C., binding reaction was terminated by filtering through Multiscreen GF/C (Millipore) presoaked in 0.5% polyethyleneimine in Vacuum Manifold Station, followed by 3 washes with ice-cold filtration buffer containing 50 mM Tris-HCl, pH 7.4. Filter plates were dried at 60° C. for 1 hour and 30 μl of scintillation cocktail were added to each well before radioactivity reading. Readings were performed in a Trilux 1450 Microbeta radioactive counter (Perkin Elmer), i.e. Human α2δ-1 enriched membranes (2.5 μg) were incubated with 15 nM of radiolabeled [3H]-Gabapentin in assay buffer containing Hepes-KOH 10 mM, pH 7.4. NSB (non specific binding) was measured by adding 10 μM pregabalin. The binding of the test compound was measured at five different concentrations. After 60 min incubation at 27° C., binding reaction was terminated by filtering through Multiscreen GF/C (Millipore) presoaked in 0.5% polyethyleneimine in Vacuum Manifold Station, followed by 3 washes with ice-cold filtration buffer containing 50 mM Tris-HCl, pH 7.4. Filter plates were dried at 60° C. for 1 hour and 30 μl of scintillation cocktail were added to each well before radioactivity reading. Readings were performed in a Trilux 1450 Microbeta radioactive counter (Perkin Elmer).

human μ-opioid receptor = target: T1, human μ-opioid receptor (Homo sapiens, UniProt P35372); test: Human μ-opioid receptor radioligand assay ([3H]-DAMGO); assay type: binding
T1 construct: expressed in transfected cells; host or cells: CHO-K1
Method: Human μ-Opioid Receptor Radioligand Assay
To investigate binding properties of test compounds to human μ-opioid receptor, transfected CHO-K1 cell membranes and [^3H]-DAMGO (Perkin Elmer, ES-542-C), as the radioligand, were used. The assay was carried out with 20 μg of membrane suspension, 1 nM of [^3H]-DAMGO in either absence or presence of either buffer or 10 μM Naloxone for total and non-specific binding, respectively. Binding buffer contained Tris-HCl 50 mM, MgCl2 5 mM at pH 7.4. Plates were incubated at 27° C. for 60 minutes. After the incubation period, the reaction mix was then transferred to MultiScreen HTS, FC plates (Millipore), filtered and plates were washed 3 times with ice-cold 10 mM Tris-HCL (pH 7.4). Filters were dried and counted at approximately 40% efficiency in a MicroBeta scintillation counter (Perkin-Elmer) using EcoScint liquid scintillation cocktail, preferably, transfected CHO-K1 cell membranes (20 μg) were incubated with 1 nM of [^3H]-DAMGO in assay buffer containing Tris-HCl 50 mM, MgCl2 5 mM at pH 7.4. NBS (non-specific binding) was measured by adding 10 μM Naloxone. The binding of the test compound was measured at five different concentrations. Plates were incubated at 27° C. for 60 minutes. After the incubation period, the reaction mix was then transferred to MultiScreen HTS, FC plates (Millipore), filtered and plates were washed 3 times with ice-cold 10 mM Tris-HCL (pH 7.4). Filters were dried and counted at approximately 40% efficiency in a MicroBeta scintillation counter (Perkin-Elmer) using EcoScint liquid scintillation cocktail.

[2] = human α2δ-1 enriched membranes, 15 nM [3H]-Gabapentin, read-out: Binding α2δ-1 (Ki)
[3] = transfected CHO-K1 cell membranes, 1 nM [3H]-DAMGO, read-out: Binding μ (Ki)

T1 sequence (P35372 whole entry): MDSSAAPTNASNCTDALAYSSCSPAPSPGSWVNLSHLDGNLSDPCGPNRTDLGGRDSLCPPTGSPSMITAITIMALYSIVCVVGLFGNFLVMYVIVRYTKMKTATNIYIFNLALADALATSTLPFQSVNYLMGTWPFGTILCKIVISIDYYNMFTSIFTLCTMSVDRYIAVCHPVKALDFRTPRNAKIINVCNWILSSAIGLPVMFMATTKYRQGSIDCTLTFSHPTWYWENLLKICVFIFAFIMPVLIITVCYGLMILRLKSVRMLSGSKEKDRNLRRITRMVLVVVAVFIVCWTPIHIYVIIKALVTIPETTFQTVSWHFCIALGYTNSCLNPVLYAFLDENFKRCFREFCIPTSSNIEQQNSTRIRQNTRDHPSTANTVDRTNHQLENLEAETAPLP
Sequence of Human α2δ-1 subunit of Cav2.2 calcium channel (P54289 25-1103): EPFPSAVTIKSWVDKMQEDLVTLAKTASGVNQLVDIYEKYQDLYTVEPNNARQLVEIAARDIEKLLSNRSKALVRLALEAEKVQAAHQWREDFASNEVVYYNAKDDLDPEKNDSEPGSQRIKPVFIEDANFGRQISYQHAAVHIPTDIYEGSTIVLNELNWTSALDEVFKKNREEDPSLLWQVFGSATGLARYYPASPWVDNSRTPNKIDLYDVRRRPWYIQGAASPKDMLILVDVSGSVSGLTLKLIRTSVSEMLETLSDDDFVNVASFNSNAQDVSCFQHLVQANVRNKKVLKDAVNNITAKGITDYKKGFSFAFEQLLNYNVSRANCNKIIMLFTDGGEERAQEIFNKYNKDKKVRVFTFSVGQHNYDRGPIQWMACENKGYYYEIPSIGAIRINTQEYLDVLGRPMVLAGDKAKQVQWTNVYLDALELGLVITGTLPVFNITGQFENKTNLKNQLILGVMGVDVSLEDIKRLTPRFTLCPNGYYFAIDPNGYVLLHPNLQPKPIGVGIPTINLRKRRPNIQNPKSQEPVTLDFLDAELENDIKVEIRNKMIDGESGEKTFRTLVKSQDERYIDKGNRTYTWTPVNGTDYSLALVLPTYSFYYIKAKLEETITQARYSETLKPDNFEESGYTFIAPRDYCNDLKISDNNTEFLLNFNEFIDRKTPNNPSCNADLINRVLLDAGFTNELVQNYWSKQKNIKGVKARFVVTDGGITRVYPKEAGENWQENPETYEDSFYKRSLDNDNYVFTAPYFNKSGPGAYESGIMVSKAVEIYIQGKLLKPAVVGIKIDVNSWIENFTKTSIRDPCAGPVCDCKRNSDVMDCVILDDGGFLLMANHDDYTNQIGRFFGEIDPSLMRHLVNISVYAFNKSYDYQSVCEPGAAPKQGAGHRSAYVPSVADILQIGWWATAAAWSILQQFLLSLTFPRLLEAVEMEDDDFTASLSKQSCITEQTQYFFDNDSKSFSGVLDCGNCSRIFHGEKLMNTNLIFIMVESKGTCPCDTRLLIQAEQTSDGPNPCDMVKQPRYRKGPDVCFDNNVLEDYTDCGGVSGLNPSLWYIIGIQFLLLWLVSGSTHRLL

## Cc1nnc(N(C)C)c2nn(-c3ccccc3OC(CCNC3CC3)c3ccccc3)c(C)c12 (centres unmarked) [Example 27, 2-(2-(3-(cyclopropylamino)-1-phenylpropoxy)phenyl)-N,N,3,4-tetramethyl-2H-pyrazolo[3,4-d]pyridazin-7-amine]
[1]
  Ki: 500 to 5000 nM
Human μ-opioid receptor
  Ki: 100 to 500 nM

## CNCCC(Oc1ccc(Br)cc1-n1nc2c(N(C)C)nnc(C)c2c1C)c1ccccc1 (centres unmarked) [Example 28, 2-(5-bromo-2-(3-(methylamino)-1-phenylpropoxy)phenyl)-N,N,3,4-tetramethyl-2H-pyrazolo[3,4-d]pyridazin-7-amine]
[1]; [2]
  Ki: 500 to 5000 nM
Human μ-opioid receptor; [3]
  Ki: > 500 nM

## Cc1nnc(N(C)C)c2nn(-c3ccccc3OCC3NCCc4ccccc43)c(C)c12 (centres unmarked) [Example 29, N,N,3,4-tetramethyl-2-(2-((1,2,3,4-tetrahydroisoquinolin-1-yl)methoxy)phenyl)-2H-pyrazolo[3,4-d]pyridazin-7-amine]
[1]; [2]
  Ki: 500 to 5000 nM
Human μ-opioid receptor; [3]
  Ki: > 500 nM

## Cc1nnc(N(C)C)c2nn(-c3ccccc3OCC3CNCc4ccccc43)c(C)c12 (centres unmarked) [Example 30, N,N,3,4-tetramethyl-2-(2-((1,2,3,4-tetrahydroisoquinolin-4-yl)methoxy)phenyl)-2H-pyrazolo[3,4-d]pyridazin-7-amine]
[1]; [2]
  Ki: > 5000 nM
Human μ-opioid receptor; [3]
  Ki: > 500 nM

## Cc1nnc(N(C)C)c2nn(-c3ccccc3OCCCNCCc3ccccc3)c(C)c12 [Example 31, N,N,3,4-tetramethyl-2-(2-(3-(phenethylamino)propoxy)phenyl)-2H-pyrazolo[3,4-d]pyridazin-7-amine]
[1]; [2]
  Ki: 500 to 5000 nM
Human μ-opioid receptor; [3]
  Ki: > 500 nM

## Cc1nnc(N(C)C)c2nn(-c3ccccc3OC3CNCc4ccccc43)c(C)c12 (centres unmarked) [Example 32, N,N,3,4-tetramethyl-2-(2-((1,2,3,4-tetrahydroisoquinolin-4-yl)oxy)phenyl)-2H-pyrazolo[3,4-d]pyridazin-7-amine]
[1]; [2]
  Ki: 500 to 5000 nM
Human μ-opioid receptor; [3]
  Ki: > 500 nM

## CNCCC(Oc1ccccc1-n1nc2c(N(C)C)nnc(C)c2c1C)c1nccs1 (centres unmarked) [Example 33, N,N,3,4-tetramethyl-2-(2-(3-(methylamino)-1-(thiazol-2-yl)propoxy)phenyl)-2H-pyrazolo[3,4-d]pyridazin-7-amine]
[1]; [2]
  Ki: 500 to 5000 nM
Human μ-opioid receptor; [3]
  Ki: > 500 nM

## Cc1nnc(N(C)C)c2nn(-c3ccccc3OC(c3ccccc3)C3CNC3)c(C)c12 (centres unmarked) [Example 34, 2-(2-(azetidin-3-yl(phenyl)methoxy)phenyl)-N,N,3,4-tetramethyl-2H-pyrazolo[3,4-d]pyridazin-7-amine]
[1]; [2]
  Ki: 500 to 5000 nM
Human μ-opioid receptor; [3]
  Ki: > 500 nM

## CNCCC(Oc1ccccc1-n1nc2c(N3CC(OC)C3)nnc(C)c2c1C)c1ccccc1 (centres unmarked) [Example 35, 3-(2-(7-(3-methoxyazetidin-1-yl)-3,4-dimethyl-2H-pyrazolo[3,4-d]pyridazin-2-yl)phenoxy)-N-methyl-3-phenylpropan-1-amine]
[1]; [2]
  Ki: 500 to 5000 nM
Human μ-opioid receptor; [3]
  Ki: > 500 nM

## CNCCC(Oc1ccccc1-n1nc2c(N3CCCC3)nnc(C)c2c1C)c1ccccc1 (centres unmarked) [Example 36, 3-(2-(3,4-dimethyl-7-(pyrrolidin-1-yl)-2H-pyrazolo[3,4-d]pyridazin-2-yl)phenoxy)-N-methyl-3-phenylpropan-1-amine]
[1]; [2]
  Ki: 500 to 5000 nM
Human μ-opioid receptor; [3]
  Ki: > 500 nM

## CCN(C)c1nnc(C)c2c(C)n(-c3ccccc3OC(CCNC)c3ccccc3)nc12 (centres unmarked) [Example 37, N-ethyl-N,3,4-trimethyl-2-(2-(3-(methylamino)-1-phenylpropoxy)phenyl)-2H-pyrazolo[3,4-d]pyridazin-7-amine]
[1]
  Ki: 500 to 5000 nM
Human μ-opioid receptor
  Ki: 100 to 500 nM

## Cc1nnc(N(C)C)c2nn(-c3ccccc3OC(CCN)c3ccccc3)c(C)c12 (centres unmarked) [Example 38, 2-(2-(3-amino-1-phenylpropoxy)phenyl)-N,N,3,4-tetramethyl-2H-pyrazolo[3,4-d]pyridazin-7-amine]
[1]; [2]
  Ki: 500 to 5000 nM
Human μ-opioid receptor; [3]
  Ki: > 500 nM

## CNCCC(Oc1ccccc1-n1nc2c(N3CCC3)nnc(C)c2c1C)c1ccccc1 (centres unmarked) [Example 39, 3-(2-(7-(azetidin-1-yl)-3,4-dimethyl-2H-pyrazolo[3,4-d]pyridazin-2-yl)phenoxy)-N-methyl-3-phenylpropan-1-amine]
[1]; [2]
  Ki: 500 to 5000 nM
Human μ-opioid receptor; [3]
  Ki: > 500 nM

## CNCCCOc1ccccc1-n1nc2c(N(C)Cc3ccccc3)nnc(C)c2c1C [Example 40, N-benzyl-N,3,4-trimethyl-2-(2-(3-(methylamino)propoxy)phenyl)-2H-pyrazolo[3,4-d]pyridazin-7-amine]
[1]; [2]
  Ki: 500 to 5000 nM
Human μ-opioid receptor; [3]
  Ki: > 500 nM

## CNCCC(Oc1ccccc1-n1nc2c(N(C)C)nnc(C)c2c1C)c1ccccc1F (centres unmarked) [Example 41, 2-(2-(1-(2-fluorophenyl)-3-(methylamino)propoxy)phenyl)-N,N,3,4-tetramethyl-2H-pyrazolo[3,4-d]pyridazin-7-amine]
[1]; [2]
  Ki: 500 to 5000 nM
Human μ-opioid receptor; [3]
  Ki: > 500 nM

## CNCCC(Oc1ccccc1-n1nc2c(N(C)C)nnc(C)c2c1C)c1ccc(F)cc1 (centres unmarked) [Example 42, 2-(2-(1-(4-fluorophenyl)-3-(methylamino)propoxy)phenyl)-N,N,3,4-tetramethyl-2H-pyrazolo[3,4-d]pyridazin-7-amine]
[1]
  Ki: < 500 nM
Human μ-opioid receptor
  Ki: > 500 nM

## COCC(CCN(C)Cc1ccccc1)Oc1ccccc1-n1nc2c(N(C)C)nnc(C)c2c1C (centres unmarked) [Example 43, 2-(2-((4-(benzyl(methyl)amino)-1-methoxybutan-2-yl)oxy)phenyl)-N,N,3,4-tetramethyl-2H-pyrazolo[3,4-d]pyridazin-7-amine]
[1]; [2]
  Ki: 500 to 5000 nM
Human μ-opioid receptor; [3]
  Ki: > 500 nM

## CNCCC(Oc1ccccc1-n1nc2c(N(C)C)nnc(C)c2c1C)c1cccc(F)c1 (centres unmarked) [Example 44, 2-(2-(1-(3-fluorophenyl)-3-(methylamino)propoxy)phenyl)-N,N,3,4-tetramethyl-2H-pyrazolo[3,4-d]pyridazin-7-amine]
[1]
  Ki: < 500 nM
Human μ-opioid receptor
  Ki: 100 to 500 nM

## CNCc1cccc(COc2ccccc2-n2nc3c(N(C)C)nnc(C)c3c2C)c1 [Example 45, N,N,3,4-tetramethyl-2-(2-((3-((methylamino)methyl)benzyl)oxy)phenyl)-2H-pyrazolo[3,4-d]pyridazin-7-amine]
[1]; [2]
  Ki: 500 to 5000 nM
Human μ-opioid receptor; [3]
  Ki: > 500 nM

## CNCCCC(Oc1ccccc1-n1nc2c(N(C)C)nnc(C)c2c1C)c1ccccc1 (centres unmarked) [Example 46, N,N,3,4-tetramethyl-2-(2-(4-(methylamino)-1-phenylbutoxy)phenyl)-2H-pyrazolo[3,4-d]pyridazin-7-amine]
[1]; [2]
  Ki: 500 to 5000 nM
Human μ-opioid receptor; [3]
  Ki: > 500 nM

## CCNCCC(Oc1ccccc1-n1nc2c(N(C)C)nnc(C)c2c1C)c1cccc(F)c1 (centres unmarked) [Example 47, 2-(2-(3-(ethylamino)-1-(3-fluorophenyl)propoxy)phenyl)-N,N,3,4-tetramethyl-2H-pyrazolo[3,4-d]pyridazin-7-amine]
[1]
  Ki: < 500 nM
Human μ-opioid receptor
  Ki: 100 to 500 nM

## CNCCC(Oc1ccccc1-n1nc2c(N(C)C)nnc(C)c2c1C)c1cc(F)cc(F)c1 (centres unmarked) [Example 48, 2-(2-(1-(3,5-difluorophenyl)-3-(methylamino)propoxy)phenyl)-N,N,3,4-tetramethyl-2H-pyrazolo[3,4-d]pyridazin-7-amine]
[1]; [2]
  Ki: 500 to 5000 nM
Human μ-opioid receptor; [3]
  Ki: > 500 nM

## Cc1nnc(N(C)C)c2nn(-c3ccccc3O[C@H](c3ccccc3)[C@@H]3CNCCO3)c(C)c12 [Example 49, N,N,3,4-tetramethyl-2-(2-((R)-((S)-morpholin-2-yl)(phenyl)methoxy)phenyl)-2H-pyrazolo[3,4-d]pyridazin-7-amine]
[1]; [2]
  Ki: 500 to 5000 nM
Human μ-opioid receptor; [3]
  Ki: > 500 nM

## Cc1nnc(N(C)C)c2nn(-c3ccccc3OC3CCNC3)c(C)c12 (centres unmarked) [Example 50, N,N,3,4-Tetramethyl-2-(2-(pyrrolidin-3-yloxy)phenyl)-2H-pyrazolo[3,4-d]pyridazin-7-amine]
[1]; [2]
  Ki: > 5000 nM
Human μ-opioid receptor; [3]
  Ki: > 500 nM

## CNCCC(COC)Oc1ccccc1-n1nc2c(N(C)C)nnc(C)c2c1C (centres unmarked) [Example 51, 2-(2-((1-methoxy-4-(methylamino)butan-2-yl)oxy)phenyl)-N,N,3,4-tetramethyl-2H-pyrazolo[3,4-d]pyridazin-7-amine]
[1]; [2]
  Ki: > 5000 nM
Human μ-opioid receptor; [3]
  Ki: > 500 nM
